Laboratory results: ChEMBL document CHEMBL1142499 (Bioorg Med Chem Lett, 2008)

Assays:
[1] = Half life in orally and iv dosed Squirrel monkey; type: ADME, organism-based, Saimiri sciureus; conditions: in vivo
Ovis aries = test: Inhibition of late-phase antigen-induced bronchoconstriction in ascaris-sensitive sheep at 0.5 mg/kg, iv daily for 4 days and antigen challenged after 2 hrs post dose on 4th day; type: functional
[2] = Half life in orally and iv dosed dog; type: ADME, organism-based, Canis lupus familiaris; conditions: in vivo
[3] = Cmax in po dosed squirrel monkey assessed after first episode of emesis; type: ADME, organism-based, Saimiri sciureus; design: route oral; conditions: in vivo
[4] = Bioavailability in orally and iv dosed Squirrel monkey; type: ADME, organism-based, Saimiri sciureus; conditions: in vivo, po
[5] = Half life in orally and iv dosed rat; type: ADME, organism-based; conditions: in vivo
[6] = Bioavailability in orally and iv dosed rat; type: ADME, organism-based; conditions: in vivo, po
[7] = Bioavailability in orally and iv dosed dog; type: ADME, organism-based, Canis lupus familiaris; conditions: in vivo, po
[8] = target: Voltage-gated inwardly rectifying potassium channel KCNH2 (Homo sapiens, UniProt Q12809)
Sequence of Voltage-gated inwardly rectifying potassium channel KCNH2 (Q12809 whole entry, the tested form may be a part): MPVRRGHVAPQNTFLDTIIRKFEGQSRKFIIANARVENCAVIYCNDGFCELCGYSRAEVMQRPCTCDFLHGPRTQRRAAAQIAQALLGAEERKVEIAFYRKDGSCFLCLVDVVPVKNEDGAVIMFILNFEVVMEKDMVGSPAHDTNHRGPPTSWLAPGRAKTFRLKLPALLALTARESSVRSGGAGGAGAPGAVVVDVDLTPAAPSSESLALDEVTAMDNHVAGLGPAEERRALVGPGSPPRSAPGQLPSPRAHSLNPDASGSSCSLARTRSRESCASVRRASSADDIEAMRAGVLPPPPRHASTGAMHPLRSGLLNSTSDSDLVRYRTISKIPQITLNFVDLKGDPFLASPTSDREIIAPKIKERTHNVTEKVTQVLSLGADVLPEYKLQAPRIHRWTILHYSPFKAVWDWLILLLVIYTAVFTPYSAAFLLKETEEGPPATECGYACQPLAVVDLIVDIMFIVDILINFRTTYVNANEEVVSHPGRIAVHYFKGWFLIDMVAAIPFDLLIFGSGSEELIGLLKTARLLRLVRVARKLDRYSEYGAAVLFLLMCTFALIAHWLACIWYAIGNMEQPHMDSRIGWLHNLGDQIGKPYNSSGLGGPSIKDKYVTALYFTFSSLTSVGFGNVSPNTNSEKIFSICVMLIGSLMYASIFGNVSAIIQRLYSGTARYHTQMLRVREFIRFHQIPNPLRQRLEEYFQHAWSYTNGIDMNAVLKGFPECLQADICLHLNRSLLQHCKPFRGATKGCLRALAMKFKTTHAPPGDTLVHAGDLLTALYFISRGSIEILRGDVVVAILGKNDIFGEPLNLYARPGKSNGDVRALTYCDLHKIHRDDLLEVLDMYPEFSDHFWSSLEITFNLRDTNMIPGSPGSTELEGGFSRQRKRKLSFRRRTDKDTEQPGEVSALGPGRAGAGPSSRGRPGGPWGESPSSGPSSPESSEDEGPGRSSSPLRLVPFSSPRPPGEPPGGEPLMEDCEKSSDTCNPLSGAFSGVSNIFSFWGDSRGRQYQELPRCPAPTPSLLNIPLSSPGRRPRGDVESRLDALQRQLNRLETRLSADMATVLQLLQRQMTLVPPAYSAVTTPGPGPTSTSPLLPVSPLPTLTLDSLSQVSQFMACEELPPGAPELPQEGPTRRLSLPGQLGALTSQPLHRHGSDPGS

[9] = target: 3',5'-cyclic-AMP phosphodiesterase 4A (Homo sapiens, UniProt P27815); test: Intrinsic inhibition of GST-fused human PDE4A expressed in SF9 cells
Sequence of 3',5'-cyclic-AMP phosphodiesterase 4A (P27815 whole entry, the tested form may be a part): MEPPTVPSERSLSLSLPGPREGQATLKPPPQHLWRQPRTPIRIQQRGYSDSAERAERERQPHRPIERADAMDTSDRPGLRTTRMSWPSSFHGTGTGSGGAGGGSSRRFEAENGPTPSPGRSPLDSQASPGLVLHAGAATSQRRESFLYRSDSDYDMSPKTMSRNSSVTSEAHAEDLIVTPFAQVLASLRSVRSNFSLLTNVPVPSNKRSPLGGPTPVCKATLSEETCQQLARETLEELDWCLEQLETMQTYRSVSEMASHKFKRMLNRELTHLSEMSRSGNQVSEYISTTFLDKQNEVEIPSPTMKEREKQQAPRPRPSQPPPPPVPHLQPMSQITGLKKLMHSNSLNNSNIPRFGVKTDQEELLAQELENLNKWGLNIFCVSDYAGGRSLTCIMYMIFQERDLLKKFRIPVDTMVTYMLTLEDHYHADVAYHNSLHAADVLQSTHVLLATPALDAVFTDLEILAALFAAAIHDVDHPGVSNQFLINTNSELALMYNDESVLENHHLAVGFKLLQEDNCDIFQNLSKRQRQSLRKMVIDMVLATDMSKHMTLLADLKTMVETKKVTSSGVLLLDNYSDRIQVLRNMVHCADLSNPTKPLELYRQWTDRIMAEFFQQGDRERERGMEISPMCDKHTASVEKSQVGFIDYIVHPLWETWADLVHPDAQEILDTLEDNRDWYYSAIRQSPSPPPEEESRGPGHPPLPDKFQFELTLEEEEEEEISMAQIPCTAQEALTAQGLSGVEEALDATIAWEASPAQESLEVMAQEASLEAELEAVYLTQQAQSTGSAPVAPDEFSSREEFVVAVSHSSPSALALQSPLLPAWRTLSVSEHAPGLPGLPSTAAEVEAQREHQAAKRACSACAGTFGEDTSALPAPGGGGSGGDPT

Blood [10] = test: Inhibition of LPS-induced TNFalpha production in human whole blood; type: functional, tissue-based
[11] = Ratio of emesis Cmax in Squirrel monkey at 2 mg/kg, po to IC50 for LPS-induced TNFalpha production in Squirrel monkey whole blood; type: functional, Saimiri sciureus
Cavia porcellus = test: Inhibition of ovalbumin-induced bronchoconstriction in conscious guinea pig at 0.03 mg/kg, ip administered 30 mins before ovalbumin challenge; type: functional; conditions: route intraperitoneal
Blood [12] = test: Inhibition of LPS-induced TNFalpha production in Squirrel monkey whole blood; type: functional, tissue-based; conditions: Saimiri sciureus
Cytochrome P450 2C9 = Cytochrome P450 2C9 (Homo sapiens, UniProt P11712); test: Inhibition of CYP2C9; type: ADME
Sequence of Cytochrome P450 2C9 (P11712 whole entry): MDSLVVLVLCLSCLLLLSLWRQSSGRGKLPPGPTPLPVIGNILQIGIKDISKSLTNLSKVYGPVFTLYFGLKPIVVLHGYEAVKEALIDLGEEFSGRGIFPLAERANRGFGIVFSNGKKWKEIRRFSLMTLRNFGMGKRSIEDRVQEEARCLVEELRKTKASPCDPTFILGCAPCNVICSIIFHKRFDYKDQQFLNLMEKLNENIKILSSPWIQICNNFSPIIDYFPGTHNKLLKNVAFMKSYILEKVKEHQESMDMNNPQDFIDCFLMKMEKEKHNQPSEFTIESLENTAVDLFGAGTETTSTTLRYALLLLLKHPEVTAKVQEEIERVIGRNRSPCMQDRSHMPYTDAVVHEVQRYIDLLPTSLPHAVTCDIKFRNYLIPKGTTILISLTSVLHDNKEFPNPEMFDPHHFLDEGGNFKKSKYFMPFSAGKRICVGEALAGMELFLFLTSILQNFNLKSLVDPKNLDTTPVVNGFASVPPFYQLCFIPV

Structure (SMILES) | IC50 [8] | IC50 [9] | IC50 (Blood [10]) | further results
Cc1noc(/C(=C/c2cccc(-c3cc(C(C)(C)S(C)(=O)=O)cc4cccnc34)c2)c2ccc(S(C)(=O)=O)cc2)n1 | – | – | – | half-life [1]: 4 h; inhibition in vivo at 0.5 mg/kg (Ovis aries): 92%; half-life [2]: 5 h; Cmax [3]: 3 µM; bioavailability [4]: 33%; half-life [5]: 4 h; bioavailability [6]: 95%; bioavailability [7]: 55%
O=C(Nc1c(Cl)cncc1Cl)c1cn(-c2ccc(Cl)cc2)c2ncccc2c1=O | 198 nM | 0.45 nM | 180 nM | –
CC(C)NC(=O)c1cn(-c2cccc(Br)c2)c2ncccc2c1=O | 31600 nM | 9.2 nM | 700 nM | –
CC(C)NC(=O)c1cn(-c2ccccc2)c2ncccc2c1=O | 71500 nM | 15.3 nM | 700 nM | –
CCOc1cccc(-c2cccc(-n3cc(C(=O)NC(C)C)c(=O)c4cccnc43)c2)c1 | 2700 nM | 1.54 nM | 840 nM | –
CC(C)N(C)C(=O)c1cn(-c2cccc(Br)c2)c2ncccc2c1=O | – | > 1000 nM | – | –
CC(C)CNC(=O)c1cn(-c2cccc(Br)c2)c2ncccc2c1=O | – | 3.54 nM | 2100 nM | –
Cc1ccc2c(=O)c(C(=O)NC(C)C)cn(-c3cccc(Br)c3)c2n1 | – | > 1000 nM | – | –
NC(=O)c1cn(-c2cccc(Br)c2)c2ncccc2c1=O | > 94500 nM | 141 nM | – | –
CC(=O)c1cccc(-c2cccc(-n3cc(C(=O)NC(C)C)c(=O)c4cccnc43)c2)c1 | 6960 nM | 0.37 nM | 470 nM | –
CC(C)NC(=O)c1cn(-c2cccc(-c3ccc(S(C)(=O)=O)cc3)c2)c2ncccc2c1=O | 23000 nM | 0.62 nM | 69 nM | –
O=C(NC1CC1)c1cn(-c2cccc(-c3ccncc3)c2)c2ncccc2c1=O | 18600 nM | – | 670 nM | –
CS(=O)(=O)c1ccc(-c2cccc(-n3cc(C(=O)NC4CC4)c(=O)c4cccnc43)c2)cn1 | 13600 nM | – | 140 nM | –
CSc1ccc(-c2cccc(-n3cc(C(=O)NC(C)C)c(=O)c4cccnc43)c2)cc1 | 960 nM | 0.75 nM | 650 nM | –
CC(C)(O)c1ccc(-c2cccc(-n3cc(C(=O)NC4CC4)c(=O)c4cccnc43)c2)c[n+]1[O-] | 50100 nM | 6.2 nM | 120 nM | half-life [1]: 4 h; inhibition in vivo at 0.5 mg/kg (Ovis aries): 84%; Ratio [11]: 530; half-life [2]: 2 h; Cmax [3]: 3.7 µM; inhibition in vivo at 0.03 mg/kg (Cavia porcellus): 69%; IC50 (Blood [12]): 7 nM; IC50 (Cytochrome P450 2C9): 59000 nM; bioavailability [4]: 33%; half-life [5]: 1.5 h; bioavailability [6]: 87%; bioavailability [7]: 100%
Cc1noc(/C(=C/c2cccc(-n3cc(C(=O)Nc4c(Cl)cncc4Cl)c(=O)c4cccnc43)c2)c2ccc(S(C)(=O)=O)cc2)n1 | – | 0.06 nM | 3 nM | –
Cc1ccc(-n2cc(C(=O)NC(C)C)c(=O)c3cccnc32)cc1Br | – | 66.5 nM | – | –
CC(=O)c1cccc(-c2cccc(-n3cc(C(=O)Nc4c(Cl)cncc4Cl)c(=O)c4cccnc43)c2)c1 | – | 0.17 nM | 5 nM | –
CC(=O)c1ccc(-c2cccc(-n3cc(C(=O)NC(C)C)c(=O)c4cccnc43)c2)cc1 | – | 0.34 nM | 75 nM | –
O=C(NC1CC1)c1cn(-c2cccc(-c3cccnc3)c2)c2ncccc2c1=O | – | – | 160 nM | –
CC(C)(O)c1ccc(C#Cc2cccc(-n3cc(C(=O)NC4CC4)c(=O)c4cccnc43)c2)c[n+]1[O-] | 89400 nM | – | 300 nM | –
CC(C)(O)c1ccc(-c2cccc(-n3cc(C(=O)NC4CC4)c(=O)c4cccnc43)c2)cn1 | – | – | 66 nM | half-life [5]: < 0.5 h
O=C(NC1CC1)c1cn(-c2cccc(C#Cc3cccnc3)c2)c2ncccc2c1=O | 16700 nM | – | 160 nM | –
O=C(NC1CC1)c1cn(-c2cccc(C#Cc3ccc[n+]([O-])c3)c2)c2ncccc2c1=O [MK-0873] | – | 6.7 nM | 180 nM | half-life [1]: 5 h; inhibition in vivo at 0.5 mg/kg (Ovis aries): 84%; half-life [2]: 2 h; Cmax [3]: 5.1 µM; inhibition in vivo at 0.03 mg/kg (Cavia porcellus): 65%; IC50 (Blood [12]): 23 nM; IC50 (Cytochrome P450 2C9): 41000 nM; bioavailability [4]: 38%; half-life [5]: 2 h; bioavailability [6]: 98%; bioavailability [7]: 100%
